# Results published in patent US20220193241A1, “AGENT TARGETING DOUBLE-MEMBRANE ORGANELLE DNA” (CHIBA-PREFECTURE, priority 2019, published 2022).
# Legend:
# Assay type in all cases: cell-based
# A549 cells [1] = test: Expression of inflammatory cytokines (SASP) by RT-qPCR; conditions: 5 days after treatment
# Experimental: The expression of inflammation-related genes such as inflammatory cytokine genes is increased in senescent cells. It is known that a phenomenon called SASP (senescence-associated secretory phenotype) is thereby induced. In order to study whether this phenomenon was induced in the A549 cells, the cells were recovered 5 days after CCC021-TPP treatment in the same manner as in Example 1, and RNA extraction, RNA reverse-transcription, cDNA synthesis, and RT-qPCR were performed in the same manner as in Example 1 to examine the expression of inflammatory cytokines (IL-1A, IL-1B, IL-6, and IL-8) in the A549 cells and the PC14 cells. The primers used for the amplification of each gene are shown below. For qPCR, amplification was performed under conditions involving a holding stage of 50° C. for 2 min→95° C. for 10 min followed by 40 cycles of a cycling stage each involving 95° C. for 15 sec→60° C. for 1 min using Applied Biosystems(R) 7500 real-time PCR system, and melt curve analysis after amplification was conducted at a melt curve stage of 95° C. for 15 sec→60° C. for 1 min→95° C. for 15 sec→60° C. for 15 sec to confirm reaction specificity from the absence of primer dimer by-products or the like in PCR products.
# A549 cells [2] = test: SA-β-Gal staining (senescence marker β-galactosidase); conditions: 20 μM, 5 days
# Experimental: In order to study whether cellular senescence was induced, the activity of a senescence marker β-galactosidase was determined with SPiDER-β-Gal (DOINDO) in the A549 cells and the PC14 cells after CCC021-TPP administration. 1000 cells were inoculated to a 35 mm dish and then cultured for 24 hours. Then, CCC021-TPP was administered (final concentration: 20 μM), and the cells were cultured for 5 days, washed twice with Hanks' balanced salt solution (HBSS) (pH 7.3), then treated with 500 μL of 4% paraformaldehyde at room temperature for 3 minutes, then washed twice with HBSS again, then treated with 500 μl of SPiDER-β-Gal Working Solution at 37° C. for 30 minutes, then washed once with HBSS, and observed under SP8 confocal microscope.
# A549 cells [3] = test: MTT cell proliferation assay
# Experimental: (§1) The A549 cells and the PC14 cells were inoculated at 5×10^3 cells/dish and 1×10^4 cells/dish, respectively, to 35 mm glass base dishes (IWAKI, Japan), cultured for 24 hours, and then treated with CCC021-TPP (final concentration: 20 μM). Further, 24 hours later, the culture solution was discarded, and a DMEM culture solution containing Mito Tracker(R) Red CMXRos (Life Technologies, USA) was added to attain 100 nM. 30 minutes later, the cells were washed twice with PBS, then fixed in 4% PFA for 30 minutes, then medium-replaced with PBS, preserved at 4° C., immunostained with the antibody by the method described in Example 1, and observed under confocal laser microscope SP8 (Leica, Germany). […] A549 and PC14 were each inoculated at 5×10^2 cells/well to 16 wells of a 96-well plate, cultured for 24 hours, and then treated with CCC021-TPP at 0, 1, 2, 5, 10, 25, and 50 μM each for 2 wells. 5 days later, the cells were reacted at room temperature for 2 hours using CytoSelect™ MTT Cell Proliferation Assay (Cosmo Bio Co., Ltd.), followed by the measurement of absorbance at 590 nm with SPECTRAFLUOR Plus (Tecan Group Ltd.) to conduct a rechallenge experiment of cell proliferation. […] 7 days later, as for change in the live cell numbers of the A549 cells and the PC14 cells, the live cell numbers were measured by trypan blue staining to experimentally examine cell survival rates.
# PC14 cells [4] = test: MTT cell proliferation assay; conditions: PC14, 5 days
# Experimental: as §1
# A549 cells [5] = test: Autophagy by anti-LC3 / cytochrome C immunofluorescent staining; conditions: 20 μM, 4-day treatment
# From the text: A possible cause of cellular senescence was the induction of mitochondrion-specific autophagy (mitophagy) of mutant mitochondria by the administration of CCC021-TPP. It is considered that the excessive production of reactive oxygen species in association therewith was involved in the induction of cellular senescence.
# A549 cells [6] = test: Synthetic lethality: cell morphology with CCC021-TPP and ABT-263; conditions: days 2 and 4
# From the text: Since the suppression of cell death in the cellular senescence of the A549 cells was presumably due to the BCL pathway, it was believed that the apoptosis of cells whose cellular senescence was evoked by CCC021-TPP could be induced by combined use with ABT-263 (Cayman Chemical Company) serving as a senolytic drug and a BCL pathway inhibitor. Thus, the possibility of inducing the cell death of senescent cells by CCC021-TPP treatment and combined use with the BCL2/BCL-XL inhibitor ABT-263 was observed under an optical microscope to observe change in cell morphology. Five hundred A549 cells were inoculated to a 96-well plate, cultured for 24 hours, and then observed over time under an optical microscope either without administration or after administration of 20 μM CCC021-TPP and 10 μM ABT-263 each used alone or used concurrently, and cell morphology was photographed on days 2 and 4.
# A549 cells [7] = test: ROS production with MitoSOX Red; conditions: 10 μM, 24 hours
# Experimental: (§2) In order to confirm the production induction of reactive oxygen species (ROS) by mitophagy, the production of reactive oxygen species was fluorescently observed with MitoSOX Red (Invitrogen). 10^4 A549 or PC14 cells were inoculated, cultured for 10 hours, then treated with 10 μM CCC021-TPP for 24 hours, then washed with PBS, and treated at 37° C. for 10 minutes with MitoSOX Red dissolved in 13 μL of DMSO and diluted into 5 μM (final concentration) with PBS. The cells were washed with PBS and then observed under SP8 confocal microscope.
# PC14 cells [8] = test: ROS production with MitoSOX Red; conditions: 10 μM, 24 hours
# Experimental: as §2
smiles,measurement,setting,value
CN(C)CCCNC(=O)CCNC(=O)c1cc(NC(=O)c2cc(NC(=O)CCNC(=O)c3nc(NC(=O)c4cc(NC(=O)c5cc(NC(=O)CCNC(=O)CCCC[P+](c6ccccc6)(c6ccccc6)c6ccccc6)cn5C)cn4C)cn3C)cn2C)cn1C [CCC021-TPP],expression of IL-1A,A549 cells [1],significantly increased expression
same,expression of IL-6,A549 cells [1],tendency to increase the expression
same,expression of IL-8,A549 cells [1],significantly increased expression
same,activity of senescence marker β-galactosidase,A549 cells [2],elevated activity of β-galactosidase was confirmed
same,cell morphology after administration,A549 cells [3]; A549,senescent morphology
same,IC50,"A549 cells [3]; Homo sapiens, 120 h, A549, 5 days",7.97 µM
same,IC50 (MTT assay),PC14 cells [4],incalculable
same,mitophagy (colocalization of LC3 and cytochrome C),A549 cells [5],mitophagy was induced
same,cells that underwent apoptosis (morphology),A549 cells [6]; combined use of 20 μM CCC021-TPP and 10 μM ABT-263,cells that evidently underwent apoptosis were already found
same,cells that underwent apoptosis (morphology),"A549 cells [6]; each used alone: 20 μM CCC021-TPP, 10 μM ABT-263",not detected
same,ROS production,A549 cells [7],excessive induction of ROS production in cytoplasm was observed
same,ROS production,PC14 cells [8],rarely observed
